# Measurements from US10080365B2, “Use of strobilurin type compounds for combating phytopathogenic fungi resistant to Qo inhibitors” (BASF SE, priority 2011, dated 2018).
# Experiments:
# [1] = test system: Septoria tritici (Qo-inhibitor-resistant, G143A mutant); test: Microtiter test, Septoria tritici Qo-inhibitor-resistant G143A mutant (Use Example 1); assay type: cell-based; conditions: for IC50: microtiter test, Qo-inhibitor-resistant G143A mutant, turbidity at 620 nm, read-out: Resistant Septoria tritici isolate (G143A mutation) (R-IC50); for Resistance factor RF = R-IC50/S-IC50: ratio of IC50 for G143A resistant isolate to IC50 for wild-type sensitive isolate
# Description: (§1) The active substances were formulated separately as a stock solution in dimethyl sulfoxide (DMSO) at a concentration of 10 000 ppm.
# (§2) Activity against the Septoria blotch pathogen caused by Septoria tritici in the microtiter test
# (§3) Fungal strains used: • a) Septoria tritici (Qo-inhibitor sensitive, wild-type) • b) Septoria tritici (Qo-inhibitor-resistant, G143A mutant)
# (§4) 100 ml 2% Malt extract in water at pH6.8 were inoculated with microspores from 2 week old cultures grown on 2% malt extract+2% agar in Petri dishes and incubated for 3 days on a rotary shaker at 24° C. und 150 rpm. The culture was harvested, glycerol was added (15% (v/v) and kept frozen at −20° C. in aliquots of 1 ml.
# (§5) 1 ml stock suspension was thawed and suspended into 800 ml of 2% malt extract in water at pH 6.8. Compounds were diluted from stock solution in (dimethylsulfoxide) DMSO in 10 steps. The compound solutions were diluted 1/5 with sterile deionized water before use. 5 μl of the compound solutions were transferred into empty microplates. The plates were then filled with 195 μl of the microspore suspension of each strain.
# (§6) The antifungal activity was determined by measuring the turbidity of a culture in 96-well microplates in the presence of test compounds. Fungal growth was measured by recording the optical density at 620 nm every 15 h for 150 h. The relative antifungal activity was calculated by comparison of the effect of the test compounds with the effect of a DMSO control and a standard fungicide.
# (§7) IC50-values (concentration of test compound resulting in 50% inhibition of fungal growth) were calculated from the resulting dose-response for each compound and strain. The initial concentration of the test compounds and the 10 steps of dilution (1:4 each) allowed IC50-values from 0.001 to 100 μmol/l (μM) to be assessed.
# [2] = test system: Septoria tritici (Qo-inhibitor sensitive, wild-type); test: Microtiter test, Septoria tritici Qo-inhibitor sensitive wild-type (Use Example 1); assay type: cell-based; conditions: turbidity at 620 nm, read-out: Sensitive Septoria tritici isolate (wild type) (S-IC50)
# Description: as §1, §2, §3, §4, §5, §6, §7
Compound,IC50 [1] [µM],IC50 [2] [µM],Resistance factor RF = R-IC50/S-IC50 [1]
"CO/C=C(/C(=O)OC)c1ccccc1Oc1cc(Oc2ccccc2C#N)ncn1 [Azoxystrobin, reference compound]",> 100,3.5,
CON=C(C(=O)OC)C(C)=CCOc1ccn(-c2ccc(Cl)cc2)n1 [Compound I-5],2.2,0.083,26
C=CCON=C(C)c1cc(C)c(OCC=C(C)C(=NOC)C(=O)NC)cc1C [Compound I-82],6.8,1.1,6
C=CCON=C(C)c1ccc(OCC=C(C)C(=NOC)C(=O)NC)c(C)c1 [Compound I-83],7.6,1.6,4.6
C=C(Cl)CON=C(C)c1cc(C)c(OCC=C(C)C(=NOC)C(=O)NC)cc1C [Compound I-84],16.1,0.5,33
C=C(Cl)CON=C(C)c1ccc(OCC=C(C)C(=NOC)C(=O)NC)c(C)c1 [Compound I-85],22,0.8,29
CC=CCON=C(C)c1cc(C)c(OCC=C(C)C(=NOC)C(=O)NC)cc1C [Compound I-90],26,1,26
CC=CCON=C(C)c1ccc(OCC=C(C)C(=NOC)C(=O)NC)c(C)c1 [Compound I-91],27,1.6,17
C=CCON=C(C)c1cc(C)c(OCC=C(C)C(=NOC)C(=O)OC)cc1C [Compound I-94],12,0.6,22
C=CCON=C(C)c1ccc(OCC=C(C)C(=NOC)C(=O)OC)c(C)c1 [Compound I-95],29,2.2,14
C=C(Cl)CON=C(C)c1ccc(OCC=C(C)C(=NOC)C(=O)OC)c(C)c1 [Compound I-97],49,1.7,29
CCON=C(C)c1ccc(OCC=C(C)C(=NOC)C(=O)OC)c(C)c1 [Compound I-191],37,1.3,29
Cc1cc(-n2cccn2)ccc1OCc1ccccc1-n1nnn(C)c1=O [Compound I-212],8.3,1.4,6
CC(=NOCc1ccccc1-n1nnn(C)c1=O)c1cccc(-c2cnn(-c3ccccc3)c2)c1 [Compound I-213],0.057,0.076,0.7
C/C(=N\OC/C=C/Cl)c1ccc(OCc2ccccc2-n2nnn(C)c2=O)c(C)c1 [Compound I-217],63,6.3,10
C=CCO/N=C(\C)c1ccc(OCc2ccccc2-n2nnn(C)c2=O)c(C)c1 [Compound I-218],79,5.6,14
C#CCO/N=C(\C)c1ccc(OCc2ccccc2-n2nnn(C)c2=O)c(C)c1 [Compound I-221],10,3.4,3
C/C(=N\OC/C=C/Cl)c1cc(C)c(OCc2ccccc2-n2nnn(C)c2=O)cc1C [Compound I-223],19,2.7,7
C=CCO/N=C(\C)c1cc(C)c(OCc2ccccc2-n2nnn(C)c2=O)cc1C [Compound I-224],5.4,1.7,3.2
C/C=C/CO/N=C(\C)c1cc(C)c(OCc2ccccc2-n2nnn(C)c2=O)cc1C [Compound I-225],72,3.4,21
C/C(=N\OC/C=C\Cl)c1cc(C)c(OCc2ccccc2-n2nnn(C)c2=O)cc1C [Compound I-228],10,3.4,3.0
CC(Cc1ccc(Cl)cc1)=NOCc1ccccc1-n1nnn(C)c1=O [Compound I-230],25,3.2,8
CO/N=C(\C)c1ccc(OCc2ccccc2-n2nnn(C)c2=O)c(C)c1 [Compound I-233],2.7,0.24,12
CCC/C(=N\OC)c1cc(C)c(OCc2ccccc2-n2nnn(C)c2=O)cc1C [Compound I-234],4,2.4,1.7

Compound,IC50 [1] [µM],IC50 [2] [µM],Resistance factor RF = R-IC50/S-IC50 [1]
CCC/C(=N\OC)c1ccc(OCc2ccccc2-n2nnn(C)c2=O)c(C)c1 [Compound I-235],51,13,4
CCON=C(c1ccc(OCc2ccccc2-n2nnn(C)c2=O)c(C)c1)C1CC1 [Compound I-236],24,6,4
CCON=C(CC)c1ccc(OCc2ccccc2-n2nnn(C)c2=O)c(C)c1 [Compound I-238],12,6,1.9
Cn1nnn(-c2ccccc2COc2nn(-c3ccc(Cl)cc3)cc2Cl)c1=O [Compound I-243],15,4.1,3.6
Cc1cn(-c2ccc(Cl)cc2)nc1OCc1ccccc1-n1nnn(C)c1=O [Compound I-244],1.3,0.6,2.0
Cn1nnn(-c2ccccc2COc2ccn(-c3cccc(C(F)(F)F)c3)n2)c1=O [Compound I-247],9,5,1.9
CCON=C(C)c1ccc(OCc2ccccc2-n2nnn(C)c2=O)c(C)c1 [Compound I-249],11,2.4,5
CCCC(=NOCC)c1cc(C)c(OCc2ccccc2-n2nnn(C)c2=O)cc1C [Compound I-250],97,19,5
CCON=C(C)c1cc(C)c(OCc2ccccc2-n2nnn(CC)c2=O)cc1C [Compound I-255],42,19,2.2
CCC(=NOC)c1ccc(OCc2ccccc2-n2nnn(CC)c2=O)c(C)c1 [Compound I-256],24,21,1.1
CCn1nnn(-c2ccccc2COc2cc(C)c(C(C)=NOC)cc2C)c1=O [Compound I-257],67,15,4.5
Cc1ccc(-n2cc(C)c(OCc3ccccc3-n3nnn(C)c3=O)n2)cc1 [Compound I-260],3.3,2.3,1.4
CCc1ccc(-n2cc(C)c(OCc3ccccc3-n3nnn(C)c3=O)n2)cc1 [Compound I-261],5,2.9,1.6
Cc1ccc(-n2cc(C)c(OCc3ccccc3-n3nnn(C)c3=O)n2)cc1C [Compound I-262],1.6,1,1.6
Cc1ccc(-n2cc(C)c(OCc3ccccc3-n3nnn(C)c3=O)n2)c(C)c1 [Compound I-265],4,3.8,1.1
Cc1cc(-c2cnco2)c(C)cc1OCc1ccccc1-n1nnn(C)c1=O [Compound I-267],5,2.9,1.7
Cc1cc(-c2c(C)noc2C)c(C)cc1OCc1ccccc1-n1nnn(C)c1=O [Compound I-269],74,8,10
Cc1ncc(-c2cc(C)c(OCc3ccccc3-n3nnn(C)c3=O)cc2C)o1 [Compound I-270],57,6,10
Cc1cc(-c2cnoc2)c(C)cc1OCc1ccccc1-n1nnn(C)c1=O [Compound I-271],7,1.9,3.9
Cc1c(OCc2ccccc2-n2nnn(C)c2=O)nn2c(C3CC3)cc(C3CC3)nc12 [Compound I-273],22,5,4
CC(=NOCc1ccccc1-n1nnn(C)c1=O)C(=O)c1ccc(C)c(C)c1 [Compound I-274],19,9,2.0
CCC(=CCOc1ccn(-c2ccc(Cl)cc2)n1)C(=NOC)C(=O)NC [Compound I-287],18,1.5,12
CNC(=O)C(=NOC)C(C)=CCOc1ncn(-c2ccc(Cl)cc2)n1 [Compound I-288],28,3.5,8.0
